# Patent US12215389B2, “Compositions for detecting epigenetic modifications” (EXACT SCIENCES CORPORATION, priority 2007, dated 2025)
# Tested on: methylated gene promoters in FFPE tissue DNA
# Test: Real-time MSP on colon tissue samples
# Set-up: species or system human
# Conditions: for Specificity (%) / Sensitivity (%): 50 cases (adenoma + carcinoma) vs 39 controls, tissue
# Procedure: Real-time MSP was applied on a 7900HT fast real-time PCR system (Applied Biosystems). 2.4 μl of the modified DNA (equivalent to 2.5 μg unconverted DNA) was added to a PCR mix (total volume 12 μl) containing buffer (16.6 mM (NH4)2SO4, 67 mM Tris (pH 8.8), 6.7 mM MgCl2, 10 mM β-mercaptoethanol), dNTPs (5 mM), forward primer (6 ng), reverse primer (18 ng), molecular beacon (0.16 μM), BSA (0.1 μg), and Jumpstart DNA Taq polymerase (0.4 units; Sigma Aldrich). Cycle program used was as follows: 5 minutes 95° C., followed by 45 cycles of 30 seconds 95° C., 30 seconds 57° C. (51° C. for APC), and 30 seconds 72° C., followed by 5 minutes 72° C. A standard curve (2×106—20 copies) was included to determine copy numbers of unknown samples by interpolation of their Ct values to the standard curve.
# Marker selection in colon tissue: Based on re-expression, 224 different gene assays representing 145 gene promotors were tested on the Base5 methylation profiling platform (data not shown, see reference 1 for details). The 37 most differentially methylated gene sequences assessing 29 gene promoters were validated on retrospectively collected tumors from 65 colorectal cancer patients (all stages) and 74 distant resection ends (histopathologically normal) using real-time MSP. Several markers reliably detected CRC in those tissue samples (data not shown). The results were confirmed on an independent test set containing 39 tissue controls (non-cancerous), 34 carcinomas and 16 adenomas. Several combinations of the tested markers reliably detected CRC with high specificity and sensitivity.
# The ten best performing markers GATA5, GATA4, SFRP1, SFRP2, APC, MGMT, NDRG4, OSMR, JPH3 and ADAM23 were validated with primer sets and beacon probes as specified in Table 24. In addition to the colon test genes, the independent reference gene β-Actin (ACT) was also measured. The ratios between the colon test genes and ACT were calculated, and are the test result of the assay.
# Marker candidates identified by re-expression were screened using 37 real-time methylation specific PCR (real-time MSP) assays. These assays were used to assess the methylation status of 29 gene promoters in 293 formalin-fixed paraffin-embedded (FFPE) tissue samples collected from various clinics. Samples included 99 carcinomas of various stages, 16 adenomas, 63 samples from patients with cancer other than CRC (20 breast [stages I-III], 22 bladder [stages I-III], 21 lung [stages I and II]), 39 samples from patients with no evidence of cancer and 76 distant resection ends (histopathologically normal) from CRC patients. These samples were divided into training and independent test sets, and used to select the gene methylation assays best able to discriminate between cancerous and non-cancerous samples. The training set included retrospectively collected tumors from 65 colorectal cancer patients (all stages) and 74 distant resection ends. Using the 10 best performing genes the results were confirmed on an independent test set containing 59 samples from patients with cancer other than CRC, 39 non-cancerous controls and 50 cancer cases (34 carcinomas and 16 adenomas).
# The individual performance of the 10 best performing tissue markers OSMR, SFRP1, GATA4, SFRP2, NDRG4, ADAM23, GATA5, MGMT, APC and JPH3 is shown in FIG. 7, when the analytical cut-off was set to give 100% specificity, except for JPH3 where a specificity of 95% was obtained (based on the 39 non-cancerous controls). In addition to the colon test genes, the independent reference gene β-Actin (ACT) was also measured. The ratios between the colon test genes and ACT were calculated, and are the test result of the assay.
# [1] = 16 adenoma tissue samples vs 39 controls
# [2] = 34 carcinoma tissue samples vs 39 controls
# [3] = second cut off ratio, between ( )
Substance,Sensitivity [1],Specificity [1],Sensitivity [2],Specificity [2],Specificity (%),Sensitivity (%) (first cut off ratio),Sensitivity (%) [3]
"SFRP1 (DNA TGTAGTTTTCGGAGTTAGTGTCGCGC; listed as DNA, chemistry not given here)",88%,100%,82%,100%,100%,84%,(92) %
"GATA5 (DNA AGTTCGTTTTTAGGTTAGTTTTCGGC; listed as DNA, chemistry not given here)",63%,100%,53%,100%,100%,56%,(66) %
